Experimental data as given in patent US10494380B2, “Nitrogen-containing tricyclic derivatives having HIV replication inhibitory activity” (priority 2015, dated 2019).
Like-named read-outs stand apart in the source and are kept apart here.

Tested on: T125A mutant virus (HIV-1 NL-432 recombinant molecular clone, IN gene)
Assay: HIV replication inhibition assay against integrase 124/125 mutant virus (Test Example 2)
Type: cell-based
Protocol: Persistently HIV (HTLV-IIIB strain) infected human T cell strain Molt-4 clone8 was cultured in RPMI-1640 medium supplemented with 10% fetal bovine serum and the supernatant was filtered, then the virus titer was measured and stored at −80° C. Polymorphic mutations in HIV-1-infected patients have been observed in amino acids 124 and 125 on the HIV-1 integrase (IN) gene. A point mutation was introduced on the amino acids 124 and/or 125 of IN gene of the HIV-1 NL-432 recombinant molecular clone to generate a mutant virus plasmid construct. These mutant virus plasmids were transfected into 293T cells, and after two days, the supernatant was filtered and then the virus titer was measured and stored at −80° C. Each anti-HIV active substance was diluted with culture medium described above to the designated concentration, which was dispensed into 96-well microtiter plate by 50 μL. Next, 100 μL of MT-4 cell suspension (2.5×10^4 cells) was dispensed into each well, then 50 μl of HIV-containing supernatant diluted with culture medium described above was added thereto (60 pfu (plaque forming unit)).
Cells were cultured at 37° C. in CO2 incubator for four days, then 30 μL of MTT (3-(4,5-dimethylthiazole-2-yl)-2,5-diphenyltetrazolyum bromide) reagent (5 mg/mL in PBS) was added to all wells followed by incubation for 1 hour. In this step, MTT was reduced to insoluble formazan in living cells. To elute generated formazan, 150 μL of the culture supernatant was removed from all wells, then 150 μL of cell lysis solution (10% Triton X-100 and 0.4% (v/v)-HCl containing isopropanol) was added thereto, followed by shaking with a plate mixer. The formazan was measured with micro plate reader at OD: 560 nm and 690 nm (reference wavelength) and the result was compared with the reference wells. EC50 means the compound concentration at which 50% of cytotoxicity caused by virus infection is inhibited.

[1] = Human immunodeficiency virus 1, MT4, read-out: EC50 against T125A mutant virus, T125A mutant virus (HIV-1 NL-432 IN gene), MT-4 cells, MTT
[2] = T125A mutant virus (HIV-1 NL-432 IN gene), MT-4 cells, MTT, read-out: EC50 against T125A mutant virus
[3] = read-out: EC50 against T125A mutant virus, T125A mutant virus (HIV-1 NL-432 IN gene), MT-4 cells, MTT

Compound	EC50 [1] [nM]	further results
Cc1c([C@H](OC(C)(C)C)C(=O)O)c(-c2ccc(Cl)cc2)c2cc(C)n3c2c1N(S(C)(=O)=O)[C@@H](C)C3 [Compound I-036]	6.5	
Cc1c([C@H](OC(C)(C)C)C(=O)O)c(-c2ccc(C(F)(F)F)cc2)c2cc(C)n3c2c1N(C)CC3 [Compound I-050]	49	
CC(=O)Nc1cnc(N2CCn3c(C)cc4c(-c5ccc(C)cc5)c([C@H](OC(C)(C)C)C(=O)O)c(C)c2c43)nc1 [Compound I-202]		EC50 [2]: 56 nM
[2H]C([2H])([2H])N1CCn2c(C)cc3c(-c4ccc(F)cc4)c([C@H](OC(C)(C)C)C(=O)O)c(C)c1c32 [Compound I-118]	10	
Cc1c(F)cc(-c2c([C@H](OC(C)(C)C)C(=O)O)c(C)c3c4c2cc(C)n4CCN3C)cc1F [Compound I-051]	22	
Cc1ccc(-c2c([C@H](OC(C)(C)C)C(=O)O)c(C)c3c4c2cc(C)n4CCN3c2ncc(CO)cn2)cc1 [Compound I-290]	22	
COc1ccc(-c2c([C@H](OC(C)(C)C)C(=O)O)c(C)c3c4c2cc(C)n4CCN3C)cc1 [Compound I-074]	27	
Cc1c([C@H](OC(C)(C)C)C(=O)O)c(-c2ccc(Cl)cc2)c2cc(C)n3c2c1N(c1ncc(OCc2ccc(F)cc2)cn1)CC3 [Compound I-236]	9.9	
Cc1c([C@H](OC(C)(C)C)C(=O)O)c(-c2ccc(Cl)cc2)c2cc(C)n3c2c1N(Cc1ccccn1)CC3 [Compound I-117]	8.6	
Cc1ccc(-c2c([C@H](OC(C)(C)C)C(=O)O)c(C)c3c4c2cc(C)n4C[C@@H](C)N3CCN2CCOCC2)cc1 [Compound I-158]	4.6	
[2H]C([2H])([2H])N1c2c(C)c([C@H](OC(C)(C)C)C(=O)O)c(-c3ccc(Cl)cc3)c3cc(C)n(c23)C([2H])([2H])C1([2H])[2H] [Compound I-103]	3.4	
Cc1c([C@H](OC(C)(C)C)C(=O)O)c(-c2ccc(Cl)cc2)c2cc(C)n3c2c1N(S(C)(=O)=O)CCC3 [Compound I-078]	21	
Cc1c([C@H](OC(C)(C)C)C(=O)O)c(-c2ccc(Cl)cc2)c2cc(C)n3c2c1N(S(=O)(=O)c1cccnc1)CC3 [Compound I-139]	6.8	
Cc1c([C@H](OC(C)(C)C)C(=O)O)c(-c2ccc(Cl)cc2)c2cc(C)n3c2c1N(c1ncc(OC(F)F)cn1)CC3 [Compound I-214]		EC50 [2]: 4 nM
Cc1ccc(-c2c([C@H](OC(C)(C)C)C(=O)O)c(C)c3c4c2cc(C)n4C(C)CN3CCN(C)C)cc1 (some centres unmarked) [Compound I-163]		EC50 [3]: 38 nM
Cc1c([C@H](OC(C)(C)C)C(=O)O)c(-c2cc(F)c(Cl)c(F)c2)c2cc(C)n3c2c1N(C)CC3 [Compound I-073]	39	
Cc1ccc(-c2c([C@H](OC(C)(C)C)C(=O)O)c(C)c3c4c2cc(Br)n4CCN3C)cc1 [Compound I-081]	9.6	
Cc1c([C@H](OC(C)(C)C)C(=O)O)c(-c2ccc(Cl)cc2)c2c(C)c(C)n3c2c1N(C)CC3 [Compound I-080]	33	
[2H]C1([2H])N(C)c2c(C)c([C@H](OC(C)(C)C)C(=O)O)c(-c3ccc(Cl)cc3)c3cc(C)n(c23)C1([2H])[2H] [Compound I-066]	4	
Cc1c([C@H](OC(C)(C)C)C(=O)O)c(-c2ccc(F)cc2)c2cc(Cl)n3c2c1N(C)CC3 [Compound I-114]	18	
COCC[C@@H]1Cn2c(C)cc3c(-c4ccc(Cl)cc4)c([C@H](OC(C)(C)C)C(=O)O)c(C)c(c32)N1S(C)(=O)=O [Compound I-108]	19	
Cc1c([C@H](OC(C)(C)C)C(=O)O)c(-c2ccc(Cl)cc2)c2cc(Cl)n3c2c1N(S(C)(=O)=O)CC3 [Compound I-094]	12	
Cc1c(-c2c([C@H](OC(C)(C)C)C(=O)O)c(C)c3c4c2cc(C)n4CCN3C)ccc2c1NCCO2 [Compound I-160]	70	
Cc1ccc(-c2c([C@H](OC(C)(C)C)C(=O)O)c(C)c3c4c2cc(C)n4CCN3c2ncc(N(C)S(C)(=O)=O)cn2)cc1 [Compound I-201]		EC50 [2]: 14 nM
CCOC(=O)N1CCn2c(C)cc3c(-c4ccc(Cl)cc4)c([C@H](OC(C)(C)C)C(=O)O)c(C)c1c32 [Compound I-064]	19	
Cc1c([C@H](OC(C)(C)C)C(=O)O)c(-c2ccc(Cl)cc2)c2cc(C)n3c2c1N(Cc1ccncc1)CC3 [Compound I-135]	8.2	
Cc1c([C@H](OC(C)(C)C)C(=O)O)c(-c2ccc(Cl)cc2)c2cc(C)n3c2c1N(S(C)(=O)=O)[C@@H](C(F)F)C3 [Compound I-088]	27	

Compound	EC50 [1] [nM]	further results
Cc1c([C@H](OC(C)(C)C)C(=O)O)c(-c2ccc(Cl)cc2)c2ccn3c2c1N(S(C)(=O)=O)CC3 [Compound I-056]	59	
Cc1ccc(-c2c([C@H](OC(C)(C)C)C(=O)O)c(Cl)c3c4c2cc(C)n4CCN3c2ncc(C)cn2)cc1 [Compound I-301]	3.3	
Cc1c([C@H](OC(C)(C)C)C(=O)O)c(-c2ccc(Cl)cc2)c2cc(C)n3c2c1N(C(=O)C1CC1)[C@@H](C)C3 [Compound I-070]	43	
[2H]C1([2H])N(C)c2c(C)c([C@H](OC(C)(C)C)C(=O)O)c(-c3ccc(Cl)cc3)c3cc(Cl)n(c23)C1([2H])[2H] [Compound I-115]	11	
Cc1c([C@H](OC(C)(C)C)C(=O)O)c(-c2ccc(Cl)cc2)c2cc(C)n3c2c1N(C)CCC3 [Compound I-079]	17	
COCCN1CCn2c(C)cc3c(-c4ccc(F)cc4)c([C@H](OC(C)(C)C)C(=O)O)c(C)c1c32 [Compound I-089]	18	
Cc1c([C@H](OC(C)(C)C)C(=O)O)c(-c2ccc(Cl)cc2)c2cc(C)n3c2c1N(S(C)(=O)=O)[C@@H](CF)C3 [Compound I-095]	14	
COCC[C@H]1Cn2c(C)cc3c(-c4ccc(Cl)cc4)c([C@H](OC(C)(C)C)C(=O)O)c(C)c(c32)N1C [Compound I-109]	15	
Cc1ccc(-c2c([C@H](OC(C)(C)C)C(=O)O)c(C)c3c4c2cc(C)n4C[C@@H](C)N3CCN(C)C)cc1 [Compound I-148]	22	
CCc1ccc(-c2c([C@H](OC(C)(C)C)C(=O)O)c(C)c3c4c2cc(C)n4CCN3C)cc1 [Compound I-082]	6.1	
Cc1c([C@H](OC(C)(C)C)C(=O)O)c(-c2ccc(Cl)cc2)c2cc(C)n3c2c1N(C)C1COCC13 (some centres unmarked) [Compound I-137]		EC50 [3]: 86 nM
COc1cnc(N2CCn3c(C)cc4c(-c5ccc(Cl)cc5)c([C@H](OC(C)C)C(=O)O)c(C)c2c43)nc1 [Compound I-215]		EC50 [2]: 47 nM
COc1ccnc(N2CCn3c(C)cc4c(-c5ccc(C)cc5)c([C@H](OC(C)(C)C)C(=O)O)c(C)c2c43)c1 [Compound I-277]	14	
CC(=O)N1c2c(C)c([C@H](OC(C)(C)C)C(=O)O)c(-c3ccc(Cl)cc3)c3cc(C)n(c23)C[C@H]1C [Compound I-061]	9.6	
Cc1ccc(-c2c([C@H](OC(C)(C)C)C(=O)O)c(C)c3c4c2cc(C)n4CCN3c2ncc(C3CC3)cn2)cc1 [Compound I-271]	4.2	
Cc1c([C@H](OC(C)(C)C)C(=O)O)c(-c2ccc(F)cc2)c2cc(C)n3c2c1N(c1ncccn1)CC3 [Compound I-123]	14	
Cc1c([C@H](OC(C)(C)C)C(=O)O)c(-c2ccc(Cl)cc2)c2cc(C)n3c2c1N(c1ncc(C2=CCOCC2)cn1)CC3 [Compound I-300]	4.6	
[2H]C1([2H])N(S(C)(=O)=O)c2c(C)c([C@H](OC(C)(C)C)C(=O)O)c(-c3ccc(Cl)cc3)c3cc(C)n(c23)C1([2H])[2H] [Compound I-034]	9.6	
Cc1c([C@H](OC(C)(C)C)C(=O)O)c(-c2ccc(F)cc2)c2cc(C)n3c2c1N(C)[C@H](C)C3 [Compound I-092]	7.6	
Cc1c([C@H](OC(C)(C)C)C(=O)O)c(-c2ccc(Cl)cc2)c2cc(C)n3c2c1N(C)C(c1ccccc1)C3 (some centres unmarked) [Compound I-334]	93	
Cc1c([C@H](OC(C)(C)C)C(=O)O)c(-c2ccc(Cl)cc2)c2c(F)c(C)n3c2c1N(S(C)(=O)=O)CC3 [Compound I-052]	9	
Cc1c([C@H](OC(C)(C)C)C(=O)O)c(-c2ccc(Cl)cc2)c2cc(C)n3c2c1N(c1ncc(OC(C)C)cn1)CC3 [Compound I-261]	3.7	
Cc1c([C@H](OC(C)(C)C)C(=O)O)c(-c2ccc(Cl)cc2)c2cc(C)n3c2c1N(C1CCOCC1)CC3 [Compound I-149]	15	
CC(=O)N1c2c(C)c([C@H](OC(C)(C)C)C(=O)O)c(-c3ccc(Cl)cc3)c3cc(C)n(c23)C[C@@H]1C [Compound I-046]	18	
CC(=O)N(C)CCN1CCn2c(C)cc3c(-c4ccc(C)cc4)c([C@H](OC(C)(C)C)C(=O)O)c(C)c1c32 [Compound I-141]	41	
COC(=O)N1c2c(C)c([C@H](OC(C)(C)C)C(=O)O)c(-c3ccc(Cl)cc3)c3cc(C)n(c23)C[C@H]1C [Compound I-111]	4.2	
